Data as given in patent publication US9650339B2, “Inhibitors of histone demethylases” (Gilead Sciences, Inc., priority 2013, dated 2017).

Key:
Format in all cases: biochemical
KDM5C (JARID1C) = target: T1, KDM5C (JARID1C) (Homo sapiens, UniProt P41229); assay: Histone lysine demethylase AlphaLISA assay, KDM5C; conditions: read-out: KDM5C HDME Inhibition IC50
T1 construct: 2-1560; purchased BPS; host or cells: Bac (baculovirus system)
Experimental: (§1) Assays are performed analogously to the protocol described by PerkinElmer (Roy et al. PerkinElmer Technical Note: AlphaLISA #12, April 2011)
(§2) Enzymes are dissolved in enzyme buffer and incubated for 10 min before being added to 3% DMSO solutions of compounds in enzyme buffer. Incubated for another 10 minutes, before substrate solution is added and the reaction mixture is incubated at room temperature. 10 μL acceptor beads, suspended in Epigenetic Buffer (Perkin Elmer AL008) from stock, are added and the suspension is incubated in the dark at room temperature, before a suspension of streptavidin donor beads (Perkin Elmer 6760002) in Epigenetic Buffer is added. After incubation at room temperature in the dark the plates are read. […]
H3K4M3B: H-ART(Kme3)QTARKSTGGKAPRKQLA-NH-Biotin (Caslo, Denmark) […]
(§3) Substrate Solution: Substrate, 25 μM L-Asc, and 10 μM α-KG in Buffer A.

KDM3A (JMJD1A) = target: T2, KDM3A (JMJD1A) (Homo sapiens, UniProt Q9Y4C1); assay: Histone lysine demethylase AlphaLISA assay, KDM3A; conditions: read-out: KDM3 A HDME Inhibition IC50
T2 construct: 2-end; purchased BPS Bioscience, US; host or cells: Bac (baculovirus system)
T2 sequence (Q9Y4C1 2-1321 limits assumed): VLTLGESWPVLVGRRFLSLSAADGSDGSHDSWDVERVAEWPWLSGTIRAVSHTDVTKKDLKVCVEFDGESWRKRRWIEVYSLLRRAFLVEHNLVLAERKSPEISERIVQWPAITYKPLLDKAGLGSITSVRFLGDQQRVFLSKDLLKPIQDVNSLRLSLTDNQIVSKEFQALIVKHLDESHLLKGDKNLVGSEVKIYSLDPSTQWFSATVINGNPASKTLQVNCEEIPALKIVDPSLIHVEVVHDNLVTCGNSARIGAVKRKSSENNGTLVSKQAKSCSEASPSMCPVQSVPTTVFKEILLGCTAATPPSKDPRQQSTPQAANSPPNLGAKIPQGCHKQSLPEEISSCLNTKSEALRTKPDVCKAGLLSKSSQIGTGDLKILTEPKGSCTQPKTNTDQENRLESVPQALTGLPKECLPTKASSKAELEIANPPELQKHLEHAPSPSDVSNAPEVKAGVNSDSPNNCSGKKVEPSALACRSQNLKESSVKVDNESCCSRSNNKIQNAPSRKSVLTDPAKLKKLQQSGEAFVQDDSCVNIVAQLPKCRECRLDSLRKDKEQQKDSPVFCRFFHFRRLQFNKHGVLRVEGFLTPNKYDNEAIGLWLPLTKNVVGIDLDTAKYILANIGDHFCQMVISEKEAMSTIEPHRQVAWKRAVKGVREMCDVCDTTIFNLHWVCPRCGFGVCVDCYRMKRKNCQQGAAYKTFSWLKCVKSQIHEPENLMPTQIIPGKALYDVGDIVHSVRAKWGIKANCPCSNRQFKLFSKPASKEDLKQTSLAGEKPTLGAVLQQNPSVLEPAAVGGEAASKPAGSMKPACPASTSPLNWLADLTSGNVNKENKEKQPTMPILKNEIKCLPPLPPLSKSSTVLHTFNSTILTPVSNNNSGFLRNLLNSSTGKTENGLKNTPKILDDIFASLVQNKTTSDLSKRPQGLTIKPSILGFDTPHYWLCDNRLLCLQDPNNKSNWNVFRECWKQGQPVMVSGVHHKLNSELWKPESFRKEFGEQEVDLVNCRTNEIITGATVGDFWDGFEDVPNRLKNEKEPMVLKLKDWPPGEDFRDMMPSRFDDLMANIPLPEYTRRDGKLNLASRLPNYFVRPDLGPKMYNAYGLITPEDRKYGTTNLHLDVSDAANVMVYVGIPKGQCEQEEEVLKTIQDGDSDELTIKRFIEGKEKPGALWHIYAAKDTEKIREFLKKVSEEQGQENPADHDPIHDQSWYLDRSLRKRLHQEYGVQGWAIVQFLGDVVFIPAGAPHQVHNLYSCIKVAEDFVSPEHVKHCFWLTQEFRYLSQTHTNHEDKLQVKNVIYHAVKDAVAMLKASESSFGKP
Experimental: as §1, §2
(§4) BK9M2: Biotin-ARTKQTAR(KMe2)STGGKAPRKQ-NH2 (AnaSpec 64359) […]
as §3

KDM3B (JMJD1B) = target: T3, KDM3B (JMJD1B) (Homo sapiens, UniProt Q7LBC6); assay: Histone lysine demethylase AlphaLISA assay, KDM3B; conditions: read-out: KDM3B HDME Inhibition IC50
T3 construct: 842-1761; host or cells: Bac (baculovirus system)
T3 sequence (Q7LBC6 842-1761): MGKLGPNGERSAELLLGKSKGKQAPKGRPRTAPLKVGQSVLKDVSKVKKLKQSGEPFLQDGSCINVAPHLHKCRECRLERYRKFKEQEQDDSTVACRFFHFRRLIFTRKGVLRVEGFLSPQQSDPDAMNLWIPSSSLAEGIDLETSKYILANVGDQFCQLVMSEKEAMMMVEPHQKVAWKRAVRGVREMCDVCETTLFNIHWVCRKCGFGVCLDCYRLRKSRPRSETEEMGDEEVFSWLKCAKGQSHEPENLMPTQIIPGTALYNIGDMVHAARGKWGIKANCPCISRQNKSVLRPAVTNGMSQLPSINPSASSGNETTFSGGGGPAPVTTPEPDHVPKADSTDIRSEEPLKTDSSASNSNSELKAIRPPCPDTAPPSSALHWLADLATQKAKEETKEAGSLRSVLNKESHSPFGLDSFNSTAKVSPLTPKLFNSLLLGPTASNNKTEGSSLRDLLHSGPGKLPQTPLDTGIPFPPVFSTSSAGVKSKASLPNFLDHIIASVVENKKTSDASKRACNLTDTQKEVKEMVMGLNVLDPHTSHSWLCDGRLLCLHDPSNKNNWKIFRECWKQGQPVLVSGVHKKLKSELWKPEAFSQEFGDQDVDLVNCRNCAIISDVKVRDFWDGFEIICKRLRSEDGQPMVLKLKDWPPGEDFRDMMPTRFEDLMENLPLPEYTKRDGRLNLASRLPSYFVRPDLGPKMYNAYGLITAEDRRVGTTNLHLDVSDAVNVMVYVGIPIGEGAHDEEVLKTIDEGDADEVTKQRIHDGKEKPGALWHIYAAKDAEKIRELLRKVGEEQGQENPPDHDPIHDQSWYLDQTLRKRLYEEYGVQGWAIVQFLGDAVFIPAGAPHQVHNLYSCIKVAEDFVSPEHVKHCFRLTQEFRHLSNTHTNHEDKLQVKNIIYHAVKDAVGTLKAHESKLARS
Experimental: as §1, §2, §4, §3

T1 sequence (P41229 2-1560): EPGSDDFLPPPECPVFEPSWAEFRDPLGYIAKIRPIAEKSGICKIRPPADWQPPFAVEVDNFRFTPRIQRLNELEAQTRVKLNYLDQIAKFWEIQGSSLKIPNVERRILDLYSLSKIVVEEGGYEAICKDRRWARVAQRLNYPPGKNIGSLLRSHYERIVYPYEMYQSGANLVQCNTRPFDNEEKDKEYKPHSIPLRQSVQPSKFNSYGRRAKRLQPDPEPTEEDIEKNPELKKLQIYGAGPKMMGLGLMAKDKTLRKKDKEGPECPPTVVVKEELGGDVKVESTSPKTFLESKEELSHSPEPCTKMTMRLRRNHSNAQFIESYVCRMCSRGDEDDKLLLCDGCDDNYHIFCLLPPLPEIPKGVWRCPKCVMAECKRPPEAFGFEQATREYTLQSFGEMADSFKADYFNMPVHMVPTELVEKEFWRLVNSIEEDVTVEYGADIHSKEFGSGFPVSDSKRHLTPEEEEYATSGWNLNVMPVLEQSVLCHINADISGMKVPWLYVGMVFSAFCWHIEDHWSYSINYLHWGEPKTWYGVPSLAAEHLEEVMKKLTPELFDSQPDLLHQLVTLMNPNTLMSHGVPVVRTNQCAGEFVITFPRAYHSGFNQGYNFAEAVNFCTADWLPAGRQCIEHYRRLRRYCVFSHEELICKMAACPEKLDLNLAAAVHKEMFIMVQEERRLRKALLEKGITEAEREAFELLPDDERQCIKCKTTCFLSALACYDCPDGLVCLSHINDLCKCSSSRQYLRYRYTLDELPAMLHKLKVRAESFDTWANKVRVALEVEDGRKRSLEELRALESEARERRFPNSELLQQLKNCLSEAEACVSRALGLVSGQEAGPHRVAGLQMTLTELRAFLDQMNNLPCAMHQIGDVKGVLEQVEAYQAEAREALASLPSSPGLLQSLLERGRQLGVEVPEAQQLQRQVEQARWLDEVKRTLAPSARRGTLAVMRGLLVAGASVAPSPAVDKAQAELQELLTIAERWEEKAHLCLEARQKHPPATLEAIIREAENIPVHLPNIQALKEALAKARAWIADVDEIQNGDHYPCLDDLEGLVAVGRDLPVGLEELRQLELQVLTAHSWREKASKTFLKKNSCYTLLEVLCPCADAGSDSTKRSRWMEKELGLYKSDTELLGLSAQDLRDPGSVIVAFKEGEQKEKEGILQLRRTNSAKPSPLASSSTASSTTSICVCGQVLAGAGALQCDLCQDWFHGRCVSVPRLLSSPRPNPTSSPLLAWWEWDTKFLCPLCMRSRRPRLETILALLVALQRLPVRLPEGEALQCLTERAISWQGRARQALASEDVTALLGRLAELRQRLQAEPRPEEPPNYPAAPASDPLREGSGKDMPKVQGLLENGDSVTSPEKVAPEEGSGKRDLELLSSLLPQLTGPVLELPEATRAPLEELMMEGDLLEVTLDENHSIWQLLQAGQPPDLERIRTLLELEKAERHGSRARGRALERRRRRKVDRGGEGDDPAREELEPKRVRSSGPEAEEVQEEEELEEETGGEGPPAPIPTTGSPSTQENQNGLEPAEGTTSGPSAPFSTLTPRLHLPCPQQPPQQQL

Compound	IC50 (KDM5C (JARID1C)) [nM]	IC50 (KDM3A (JMJD1A)) [nM]	IC50 (KDM3B (JMJD1B)) [nM]
CCN(CC)CCCCNCc1cc(CNC(=O)C(F)(F)F)ccn1 [Compound 1, N-{[2-({[4-(diethylamino)butyl]-amino}methyl)pyridin-4-yl]methyl}-2,2,2-trifluoroacetamide]	250 to 2500	> 2500	> 2500
CN(C)CCCNCc1cc(CN)ccn1 [Compound 3, [2-({[3-(dimethylamino)propyl]-amino}methyl)pyridin-4-yl]methanamine]	< 250		> 2500
CCN(CCN(C)C)C(=O)CNCc1cc(CN)ccn1 [Compound 4, 2-({[4-(aminomethyl)pyridin-2-yl]methyl}amino)-N-[2-(dimethylamino)ethyl]-N-ethylacetamide]	< 250	> 2500	> 2500
CCN(CC)CCCCNCc1cc(CN)ccn1 [Compound 5, [2-({[4-(diethylamino)butyl]-amino}methyl)pyridin-4-yl]methanamine]		> 2500	> 2500
CCN(CC)CCCCN(Cc1cc(CNC(=O)C(F)(F)F)ccn1)C(=O)C(F)(F)F [Compound 6, N-[4-(diethylamino)butyl]-- 2,2,2-trifluoro-N-({4-[(trifluoroacetamido)-methyl]pyridin-2-yl}methyl)acetamide]	> 2500	> 2500	> 2500
NCc1ccnc(CNCCCCN2CCC2)c1 [Compound 7, [2-({[4-(azetidin-1-yl)butyl]amino}methyl)-pyridin-4-yl]-methanamine]		> 2500	> 2500
CN(C)CCCCCNCc1cc(CN)ccn1 [Compound 8, [2-({[5-(dimethylamino)pentyl]-amino}methyl)pyridin-4-yl]methanamine]	< 250	> 2500	> 2500
COc1ccccc1CN1CCC(NC(=O)CNCc2cc(CN)ccn2)CC1 [Compound 9, 2-({[4-(aminomethyl)pyridin-2-yl]methyl}amino)-N-{1-[(2-methoxyphenyl)methyl]-piperidin-4-yl}acetamide]	< 250	> 2500	> 2500
CN(C)CCCCNCc1cc(CNC2CC2)ccn1 [Compound 10, N-{[2-({[4-(dimethylamino)butyl]-amino}methyl)pyridin-4-yl]methyl}-cyclopropanamine]		> 2500	> 2500
CC1CCCCN1CCCNCc1cc(CNC2CC2)ccn1 (stereo not drawn) [Compound 11, N-{[2-({[3-(2-methylpiperidin-1-yl)propyl]amino}methyl)-pyridin-4-yl]methyl}-cyclopropanamine]		> 2500	> 2500
CCCNCc1cc(CNC2CC2)ccn1 [Compound 12, N-({2-[(propylamino)methyl]-pyridin-4-yl}methyl)-cyclopropanamine]	> 2500	> 2500	> 2500
CN(C)C(=O)CNCc1cc(CNCC#N)ccn1 [Compound 13, 2-{[(4-{[(cyanomethyl)amino]-methyl}pyridin-2-yl)methyl]amino}-N,N-dimethylacetamide]	> 2500		> 2500
CN(C)C(=O)CNCc1cc(CNCCF)ccn1 [Compound 14, 2-{[(4-{[(2-fluoroethyl)amino]-methyl}pyridin-2-yl)methyl]amino}-N,N-dimethylacetamide]	250 to 2500	> 2500	> 2500
CN(C)CCNCc1ccnc(CNCC(=O)N(C)C)c1 [Compound 15, 2-({[4-({[2-(dimethylamino)ethyl]-amino}methyl)pyridin-2-yl]methyl}amino)-N,N-dimethylacetamide]	250 to 2500	> 2500	> 2500
c1ccc(CN2CCC[C@H]2CNCc2cc(CNCC3CC3)ccn2)cc1 [Compound 16, {[(2S)-1-benzylpyrrolidin-2-yl]methyl}[(4-{[(cyclopropylmethyl)-amino]methyl}pyridin-2-yl)methyl]amine]	250 to 2500	> 2500	> 2500
CNCc1ccnc(CNCCCN(C)Cc2ccccc2)c1 [Compound 17, benzyl(methyl){3-[({4-[(methylamino)methyl]-pyridin-2-yl)methyl)-amino]propyl}-amine]	< 250	> 2500	> 2500
CN(C)CCNCc1cc(CNC(C#N)C2CC2)ccn1 (stereo not drawn) [Compound 21, 2-cyclopropyl-2-({[2-({[2-(dimethylamino)ethyl]-amino}methyl)pyridin-4-yl]methyl}amino)-acetonitrile]	> 2500	> 2500	> 2500
CN(C)C(=O)CNCc1cc(/C=N\C2CC2)ccn1 [Compound 33]	< 250		> 2500
CN(CCCNCc1cc(/C=N/C2CC2)ccn1)Cc1ccccc1 [Compound 41, N-({2-[({3-[benzyl(methyl)amino]-propyl}amino)methyl]-pyridin-4-yl}methylidene)-cyclopropanamine]			> 2500
CCN(CCN(C)C)C(=O)CNCc1cc(/C=N/CCC2CCCCC2)ccn1 [Compound 63, 2-[({4-[[(2-cydohexylethyl)-imino]methyl]pyridin-2-yl}methyl)amino]-N-[2-(dimethylamino)-ethyl]-N-ethylacetamide]	< 250		> 2500
CN(C)CC1CCC(CNCc2cc(C=O)ccn2)CC1 (stereo not drawn) [Compound 97, 2-{[({4-[(dimethylamino)-methyl]cyclohexyl}-methyl)amino]-methyl}pyridine-4-carbaldehyde]		> 2500	> 2500
CCN(CC)C(=O)CNCc1cc(C=O)ccn1 [Compound 105, N,N-diethyl-2-{[(4-formylpyridin-2-yl)methyl]amino}-acetamide]		> 2500	> 2500
